Results: ChEMBL document CHEMBL4325850 (Bioorg Med Chem Lett, 2018)
pIC50: −log10 of the molar value. The source made the active and inactive calls. No cut-off for these calls is given here.

Legend:
[1] = Inhibition of ADP-induced platelet aggregation in human platelet-rich plasma at 0.1 mM preincubated for 5 mins followed by ADP-stimulation and measured within 5 mins by Born's turbidimetric analysis relative to control; conditions: read-out: INH
[2] = target: Dipeptidyl peptidase 9 (Homo sapiens, UniProt Q86TI2); test: Inhibition of human recombinant DPP-9 using H-Gly-Pro-AMC as substrate after 10 mins by fluorescence assay
Sequence of Dipeptidyl peptidase 9 (Q86TI2 whole entry): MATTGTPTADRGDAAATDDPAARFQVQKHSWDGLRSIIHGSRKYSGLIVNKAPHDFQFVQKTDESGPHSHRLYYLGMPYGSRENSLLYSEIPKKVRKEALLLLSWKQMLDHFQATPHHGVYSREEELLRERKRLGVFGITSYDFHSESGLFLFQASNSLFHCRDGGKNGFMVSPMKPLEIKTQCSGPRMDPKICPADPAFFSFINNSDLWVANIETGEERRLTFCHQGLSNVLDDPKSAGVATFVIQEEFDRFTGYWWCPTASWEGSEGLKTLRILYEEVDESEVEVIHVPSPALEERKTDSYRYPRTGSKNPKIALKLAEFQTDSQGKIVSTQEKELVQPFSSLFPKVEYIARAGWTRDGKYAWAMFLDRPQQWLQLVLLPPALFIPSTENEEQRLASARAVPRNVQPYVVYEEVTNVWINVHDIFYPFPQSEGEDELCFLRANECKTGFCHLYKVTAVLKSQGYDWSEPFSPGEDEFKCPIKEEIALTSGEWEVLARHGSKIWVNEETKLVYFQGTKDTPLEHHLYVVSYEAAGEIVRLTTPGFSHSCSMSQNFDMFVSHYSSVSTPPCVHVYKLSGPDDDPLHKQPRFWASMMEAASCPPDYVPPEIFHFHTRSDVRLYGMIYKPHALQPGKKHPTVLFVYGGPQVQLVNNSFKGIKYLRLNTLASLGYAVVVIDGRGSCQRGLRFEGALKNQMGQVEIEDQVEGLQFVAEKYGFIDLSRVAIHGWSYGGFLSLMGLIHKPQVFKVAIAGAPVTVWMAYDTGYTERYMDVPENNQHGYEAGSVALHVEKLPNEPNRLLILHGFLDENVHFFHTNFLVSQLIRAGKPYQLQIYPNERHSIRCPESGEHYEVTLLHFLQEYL

[3] = target: Dipeptidyl peptidase 8 (Homo sapiens, UniProt Q6V1X1); test: Inhibition of human recombinant DPP-8 using H-Gly-Pro-AMC as substrate after 10 mins by fluorescence assay
Sequence of Dipeptidyl peptidase 8 (Q6V1X1 whole entry): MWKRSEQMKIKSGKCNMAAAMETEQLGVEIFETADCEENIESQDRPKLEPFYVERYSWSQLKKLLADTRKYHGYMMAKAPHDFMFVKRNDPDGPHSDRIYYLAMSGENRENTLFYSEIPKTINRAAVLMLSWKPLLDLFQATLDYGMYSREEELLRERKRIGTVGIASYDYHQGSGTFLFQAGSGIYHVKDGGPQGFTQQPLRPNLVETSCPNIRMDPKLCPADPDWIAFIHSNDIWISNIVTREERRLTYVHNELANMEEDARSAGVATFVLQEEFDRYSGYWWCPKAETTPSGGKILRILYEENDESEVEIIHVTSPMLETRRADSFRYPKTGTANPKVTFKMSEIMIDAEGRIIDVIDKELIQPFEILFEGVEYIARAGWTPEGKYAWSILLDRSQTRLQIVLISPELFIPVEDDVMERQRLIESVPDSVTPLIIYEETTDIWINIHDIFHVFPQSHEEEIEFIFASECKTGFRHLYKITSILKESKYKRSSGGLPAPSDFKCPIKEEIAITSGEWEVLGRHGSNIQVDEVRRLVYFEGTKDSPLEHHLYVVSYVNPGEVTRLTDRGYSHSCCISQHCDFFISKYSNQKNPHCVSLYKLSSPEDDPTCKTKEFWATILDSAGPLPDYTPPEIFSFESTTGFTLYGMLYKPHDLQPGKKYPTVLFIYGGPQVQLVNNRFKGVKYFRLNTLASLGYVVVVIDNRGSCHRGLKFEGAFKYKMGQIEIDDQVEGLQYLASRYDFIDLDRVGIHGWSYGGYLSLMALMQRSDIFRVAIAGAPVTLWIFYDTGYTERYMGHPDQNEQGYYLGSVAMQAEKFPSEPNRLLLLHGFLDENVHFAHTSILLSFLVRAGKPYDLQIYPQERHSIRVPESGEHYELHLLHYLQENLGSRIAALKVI

[4] = Induction of NO production in pH 7.4 PBS incubated for 1 to 14 hrs under dark conditions and measured every 1 hr for 2 hrs and then every 2 hrs for remaining time by Griess assay; assay type: functional

Row | SMILES | inhibition at 100 µM [1] | pIC50 [2] | pIC50 [3] | Activity [4]
1 | O=C(CCCCO)N[C@@H](CC(=O)N1CCn2c(nnc2C(F)(F)F)C1)Cc1cc(F)c(F)cc1F | 2.02% | < 4.00 | < 4.00 | 
2 | O=C(CCCO)N[C@@H](CC(=O)N1CCn2c(nnc2C(F)(F)F)C1)Cc1cc(F)c(F)cc1F | 3.41% | < 4.00 | < 4.00 | 
3 | CC(=O)Oc1ccccc1C(=O)O [ASPIRIN] | 26% |  |  | 
4 | O=C(CCCO[N+](=O)[O-])N[C@@H](CC(=O)N1CCn2c(nnc2C(F)(F)F)C1)Cc1cc(F)c(F)cc1F | 27.6% | < 4.00 | < 4.00 | Active
5 | O=C(CCCCCO[N+](=O)[O-])N[C@@H](CC(=O)N1CCn2c(nnc2C(F)(F)F)C1)Cc1cc(F)c(F)cc1F | 40.2% | < 4.00 | < 4.00 | Active
6 | O=C(CCCCO[N+](=O)[O-])N[C@@H](CC(=O)N1CCn2c(nnc2C(F)(F)F)C1)Cc1cc(F)c(F)cc1F | 32.1% | < 4.00 | < 4.00 | Active
7 | O=C(CCCCCO)N[C@@H](CC(=O)N1CCn2c(nnc2C(F)(F)F)C1)Cc1cc(F)c(F)cc1F | 3.63% | < 4.00 | < 4.00 | 
8 | O=C(CO)N[C@@H](CC(=O)N1CCn2c(nnc2C(F)(F)F)C1)Cc1cc(F)c(F)cc1F | 3.22% | < 4.00 | < 4.00 | 
9 | N[C@@H](CC(=O)N1CCn2c(nnc2C(F)(F)F)C1)Cc1cc(F)c(F)cc1F [SITAGLIPTIN] | 4.24% |  |  | 
10 | O=C(CO[N+](=O)[O-])N[C@@H](CC(=O)N1CCn2c(nnc2C(F)(F)F)C1)Cc1cc(F)c(F)cc1F | 22.4% | < 4.00 | < 4.00 | Active
